{"source": "patent US20260207530A1", "about": "“USE FOR AMELIORATION OF INTESTINAL DISEASES USING ALLULOSE” (SAMYANG CORPORATION, priority 2022, published 2026)", "format_in_all_cases": "cell-based, human", "key": {"[1]": {"test_system": "TLR4/NF-κB signaling", "experiment": "Expression of TLR4/NF-κB signaling factors in Caco-2 cells with LPS-induced inflammation (RT-PCR, Western blot)", "conditions": "Caco-2, allulose 5, 10, 20 mM, LPS 1 μg/ml 24 hours", "method": "The anti-inflammatory effect of allulose was confirmed in Caco-2 cells with inflammation induced with LPS (Lipopolysaccharide). The gene and protein expression levels of factors (p50, p65, TLR4, MyD88, IKKα, IKKβ, IKβα, IRAK4, TRAF6) related to TLR4/NF-κB signaling, which is a signaling that mediates the inflammatory response, were confirmed through RT-PCR and Western blot.\nSpecifically, Caco-2 cells were cultured and differentiated at a density of 2×10^5 cells/well in 24-well plates and simultaneously treated with allulose dissolved in MEM medium as culture medium of Caco-2 cells, at concentrations of 5, 10, and 20 mM. After 6 hours, LPS (1 μg/ml) was treated to induce inflammation for 24 hours. The culture was performed in an incubator at 5% CO2 and 37° C.\nAs a negative control, Caco-2 cells not treated with LPS were used. As a positive control, the differentiated Caco-2 cells which were treated with LPS to induce inflammation but not treated with allulose were used.\nAfter extracting RNA from the cells using Trizol, cDNA was synthesized using a cDNA synthesis kit, and the expression level of the genes was confirmed by qRT-PCR using primers designed for each gene. The PCR conditions used were denaturation at 95° C. for 15 seconds, annealing at 62° C. for 30 seconds, and an elongation process at 72° C. for 1 minute. For protein expression analysis, proteins were extracted from the cultured cells using RIPA lysis buffer. The extracted proteins were pretreated by reaction at 95° C. for 5 minutes, and then separated by electrophoresis on SDS-PAGE. After the proteins were transferred to a PVDF membrane, they were blocked in a 5% (w/v) BSA solution for 1 hour, and the primary antibodies for each factor were diluted 1:1000 in a 5% (w/v) BSA solution and reacted at 4° C. for one day. […] The bands were detected using a LAS 4000 system, and the expression density was calculated using image detection software (Image J software) to calculate the expression amount."}, "[2]": {"test_system": "TLR4/NF-κB signaling and TLR4/MAPK signaling", "experiment": "Expression of TLR4/NF-κB and TLR4/MAPK signaling factors in HT-29 cells with LPS-induced inflammation (RT-PCR, Western blot)", "conditions": "HT-29, allulose 5, 10, 20 mM, LPS 1 μg/ml", "method": "HT-29 cells were treated simultaneously with LPS (1 μg/ml) and allulose, and reacted for 8 hours. Specifically, HT-29 cells were seeded at a concentration of 2×10^5 cells/well in 24-well plates and cultured in an incubator at 37° C. and % CO2 for 6-7 days. Allulose dissolved in RPMI 1640 medium, which is a HT-29 culture medium, was treated simultaneously at concentrations of 5, 10, and 20 mM, and after 8 hours, LPS (1 μg/ml) was treated to induce inflammation for 24 hours.\nThe gene and protein expression levels of Factors involved in TLR4/NF-κB signaling and TLR4/MAPK signaling were confirmed using RT-PCR and Western blot. After extracting RNA from cells using Trizol, cDNA was synthesized using a cDNA synthesis kit, and the gene expression levels were measured by qRT-PCR using primers designed for each gene. The PCR conditions used were denaturation at 95° C. for 15 seconds, annealing at 62° C. for 30 seconds, and elongation at 72° C. for 1 minute. For protein expression analysis, proteins were extracted from cultured cells using RIPA lysis buffer. The extracted proteins were pretreated by reacting at 95° C. for 5 minutes, and then separated by electrophoresis in SDS-PAGE. After transferring the protein to the PVDF membrane, it was blocked in 5% (w/v) BSA solution for 1 hour, and the primary antibody for each factor was diluted 1:1000 with 5% (w/v) BSA solution and reacted at 4° C. for 1 day. The membrane reacted with the primary antibody was reacted with the secondary antibody in tris-buffered saline solution containing 0.1% (v/v) Tween 20 for 1 hour at room temperature. The bands were detected using the LAS 4000 system, and the expression density was calculated using image detection software (image J software) to calculate the expression amount."}, "[3]": {"test_system": "Prostaglandin E2 and COX-2", "experiment": "Prostaglandin E2 (ELISA) and COX-2 (RT-PCR) in Caco-2 cells with LPS-induced inflammation", "conditions": "allulose 5, 10, 20 mM 6 hours, then LPS 1 μg/ml 12 hours", "method": "Caco-2 cells were cultured in 24-well plates at a density of 2×10^5 cells/well. The medium was replaced every two days, and allulose was simultaneously treated at concentrations of 5 mM, 10 mM, and 20 mM, and cultured for 6 hours after treatment and reacted for 12 hours after LPS (1 μg/ml) treatment. The supernatant was used for ELISA analysis, and RNA was extracted from the cells using Trizol, and cDNA was synthesized using a cDNA synthesis kit. Then, the expression level of the genes was assessed by qRT-PCR using primers designed for each gene. The PCR conditions used were denaturation at 95° C. for 15 seconds, annealing at 62° C. for 30 seconds, and an elongation process at 72° C. for 1 minute."}, "[4]": {"test_system": "mucin genes (MUC2, MUC5AC, MUC5B)", "experiment": "Mucin gene expression in HT-29 cells with LPS-induced inflammation (RT-PCR)", "conditions": "HT-29, RT-PCR, allulose 5, 10, 20 mM, LPS 1 μg/ml 24 hours", "method": "The effect of allulose on expression level of mucins was confirmed in HT-29 cells with LPS-induced inflammation. Specifically, HT-29 cells were seeded at a concentration of 2×10^5 cells/well in 24-well plates and cultured in an incubator at 37° C. and % CO2 for 6-7 days. Allulose dissolved in RPMI 1640 medium of a HT-29 culture medium, was simultaneously treated at concentrations of 5, 10, and 20 mM, and after 8 hours, LPS (1 μg/ml) was treated to induce inflammation for 24 hours. Afterwards, the cells were washed with PBS, RNA was extracted from the cells using Trizol, and cDNA was synthesized using a cDNA synthesis kit. Then, the expression level of the gene was assessed by qRT-PCR using primers produced for mucin genes (MUC2, MUC5AC, MUC5B) that protected the intestinal mucosa. The PCR conditions used were denaturation at 95° C. for 15 seconds, annealing at 62° C. for 30 seconds, and elongation at 72° C. for 1 minute."}, "[5]": {"test_system": "polarized Caco-2 cells", "experiment": "Transepithelial electrical resistance (TEER) in polarized Caco-2 cells treated with IFN-γ/TNF-α", "conditions": "polarized Caco-2, IFN-γ 10 ng/ml 24 hours, allulose 1 hour, TNF-α 10 ng/ml 6 hours; vs TEER decreased by IFN-γ/TNF-α", "method": "Transepithelial electrical resistance (TEER) was measured as an indicator of the adhesive strength between intestinal epithelial cells using allulose as an active ingredient, and the electrical resistance values of the upper and lower layers of intestinal cells for allulose materials were examined. Specifically, Caco-2 cells were seeded in the upper layer of a Transwell insert at a concentration of 5×10^4 cells/well, and 600 μl of medium without cells was added to the lower layer and cultured. The medium was replaced every 2 days, and cultured for 3 weeks to form polarization. After polarization formation, the upper layer with cells was pre-treated with IFN-γ (10 ng/ml) for 24 hours, allulose was treated at various concentrations for 1 hour, and TNF-α (10 ng/ml) was treated for 6 hours. After the reaction was completed, the electrical resistance value TEER was measured using a Millicell ERS-2 Voltohmmeter."}, "[6]": {"test_system": "Caco-2 cells", "experiment": "ROS accumulation with DCFH-DA fluorescent probe in Caco-2 cells with LPS-induced inflammation", "conditions": "Caco-2, LPS 1 μg/ml and allulose 5, 10, 20 mM 12 h", "method": "Caco- 2 cells were seeded at 5×10^4 cells/well in 96-well plates and cultured. After simultaneous treatment with LPS (1 μg/ml) and allulose at concentrations of 5 mM, 10 mM, and 20 mM, the cells were cultured for 12 h under conditions of 5% CO2 and 37° C. After removing the culture supernatant, DCF-DA was added to the medium at a concentration of 20 μM and cultured in an incubator for 30 min. After culture, the cells were washed with PBS and the amount of ROS production was measured using fluorescence absorbance at excitation of 488 nm and emission of 535 nm."}, "[7]": {"test_system": "ZO-1 and Occludin", "experiment": "Expression of tight junction factors ZO-1 and Occludin in Caco-2 cells with LPS-induced inflammation (RT-PCR, Western blot)", "conditions": "Caco-2, allulose 5, 10, 20 mM 6 hours, then LPS 1 μg/ml 12 hours; vs level decreased by inflammation", "method": "Caco-2 cells were cultured in 24-well plates at a density of 2×10^5 cells/well. The medium was replaced every other day, and the cells were cultured for 6 hours after treatment with 5, 10, and 20 mM allulose, and reacted for 12 hours after treatment with LPS (1 μg/ml). After extracting RNA from the cells using Trizol, cDNA was synthesized using a cDNA synthesis kit, and the gene expression level was confirmed by qRT-PCR using primers designed for each gene. The PCR conditions used were denaturation at 95° C. for 15 seconds, annealing at 62° C. for 30 seconds, and elongation at 72° C. for 1 minute. For protein expression analysis, proteins were extracted from the cultured cells using RIPA lysis buffer. The extracted proteins were pretreated by reacting at 95° C. for 5 minutes, and then separated by electrophoresis on SDS-PAGE. After transferring the proteins to the PVDF membrane, they were blocked in a 5% (w/v) BSA solution for 1 hour, and the primary antibodies for each factor were diluted 1:1000 in a 5% (w/v) BSA solution and reacted at 4° C. for 1 day. […] The bands were detected using a LAS 4000 system, and the expression density was calculated using image detection software (image J software) to calculate the expression amount."}}}
{"smiles": "O=C(CO)C(O)C(O)C(O)CO", "note": "(centres unmarked) [allulose]", "values": [{"measurement": "expression amount of NF-κB p65/p50", "setting": "[1]", "value": "decreased"}, {"measurement": "expression amount of TLR4 activated by LPS", "setting": "[1]", "value": "decreased"}, {"measurement": "expression level of factors related to TLR4/NF-κB signaling (mRNA and protein)", "setting": "[1]; vs LPS control without allulose", "value": "decreased"}, {"measurement": "MAPK signal (p38, p-p38, JNK, p-JNK, c-Jun, p-c-Jun, c-Fos, p-c-Fos)", "setting": "[2]", "value": "decreased"}, {"measurement": "MyD88, IRAK4, TRAF6 expression", "setting": "[2]", "value": "decreased"}, {"measurement": "NF-κB signal (p50, p65, p-p65, Ikkα, Ikkβ, p-Ikkαβ, Ikβα, p-Ikβα)", "setting": "[2]", "value": "decreased"}, {"measurement": "expression level of COX-2", "setting": "[2]", "value": "decreased"}, {"measurement": "expression level of TLR4", "setting": "[2]", "value": "decreased"}, {"measurement": "concentration of Prostaglandin E2", "setting": "[3]; Caco-2, ELISA of supernatant", "value": "decreased"}, {"measurement": "expression level of COX-2", "setting": "[3]; Caco-2, RT-PCR", "value": "decreased"}, {"measurement": "expression level of MUC2", "setting": "[4]", "value": "decreased"}, {"measurement": "expression level of MUC5AC", "setting": "[4]", "value": "decreased"}, {"measurement": "expression level of MUC5B", "setting": "[4]", "value": "decreased"}, {"measurement": "electrical resistance value (TEER)", "setting": "[5]", "value": "increased"}, {"measurement": "accumulated ROS", "setting": "[6]", "value": "reduced"}, {"measurement": "mRNA and protein expression levels of Occludin", "setting": "[7]", "value": "increased"}, {"measurement": "mRNA and protein expression levels of ZO-1", "setting": "[7]", "value": "increased"}]}
